Measured values as given in patent publication US20080299123A1, “TREATMENT OF CHEMOTHERAPY- OR RADIOTHERAPY-RESISTANT TUMORS” (Deutsches Krebsforschungszentrum Stiftung des offentlichen …, priority 2006, published 2008).

Tests used:
[1] = system: cathepsin B and CRABPII transcription; test: L1-dependent gene regulation by qPCR in HEK293-hL1wt cells; format: cell-based, human; conditions: preincubation 96 h
Procedure: (§1) (A) Analysis of L1-32 cleavage by γ-secretase. Cells were treated for 48 h at 37° C. with presenilin inhibitor IX (DAPT) or for control with DMSO. Isolated membranes were incubated for 2 h at 37° C. and then separated into pellet or supernatant (SN) fractions by ultracentrifugation. Lanes 1 to 2 show cells treated with DMSO (vehicle). Lanes 3 and 4 show cells preincubated with DAPT. (B) SKOV3ip cells were treated with DAPT either in the presence or absence of the metalloprotease inhibitor TAPI-0 for 24 hr. Cells were lysed in BOG lysis buffer and analyzed by Western blot analysis. The cell supernatant was analyzed for soluble L1 using mAb L1-11A and the cell lysate was examined for L1-32 using peytL1. (C) HEK293 or HEK293-hL1wt cells were treated with DMSO, DAPT, TAPI-0 or both inhibitors for 96 h. mRNA was transcribed to cDNA and analyzed by qPCR for the genes CRABPII and cathepsin B. (D) Analysis of ERK phosphorylation in SKOV3ip cells after treatment with the indicated compounds.
We next investigated whether L1-mediated gene regulation was dependent on L1-processing, by carrying out inhibition experiments. […]
mRNA was isolated using the Quiagen RNAeasy mini kit (Quiagen Hilden, Germany). […] After exposing of the hybridized membranes, the PhosphorImager screens were scanned (Fuji FLA-3000, 100 μm resolution, Fuji BAS-reader software). […]

ERK phosphorylation = ERK phosphorylation in SKOV3ip cells; format: cell-based, human; conditions: treatment with DAPT, TAPI-0
Procedure: as §1
(§2) (A) Effect of L1-antibodies on ERK phosphorylation in SKOV3ip cells. The cells were incubated for 24 hr at 37° C. with the indicated purified antibodies to L1 (10 μg/ml) or isotype control IgG. […] Soluble L1 in the supernant and L1-32 in the cell lysate were analyzed by Western blot. (C) mRNA was isolated from antibody treated SKOV3ip cells, transcribed to cDNA and analyzed by qPCR for the indicated genes. […]

γ-secretase = test: In vitro γ-secretase activity on membranes of CHO-hL1wt cells; format: cell-based; conditions: cells preincubated 48 h with inhibitor; membranes 2 h at 37° C.
Procedure: as §1
Consecutive cleavage by both enzymes is a hallmark of Notch, APP and CD44 signaling that is followed by translocation of the intracellular portion to the nucleus (22). To verify this observation for tumor cells, we analyzed the processing of L1-32 in more detail. […] Indeed, we detected L1-28 in the supernatant fraction (FIG. 11A, lane 2). […]

L1 = L1 processing in SKOV3ip cells (L1-32 in lysate, soluble L1 in supernatant), Western blot; format: cell-based, human; conditions: 24 hr
Procedure: as §1, §2

L1CAM = L1CAM expression in PT45-P1 cells; format: cell-based, human; conditions: 20 ng/mL IL1β
Procedure: (a) PT45-P1res cells were either left untreated (w/o) or treated with 250 ng/mL IL1-RA for 6 hours. In parallel, PT45-P1 cells were either left untreated (w/o) or treated with 20 ng/mL IL1β for 6 hours. L1CAM mRNA levels were analysed by real-time PCR and compared with β-actin used as control. Data from duplicate measurements are expressed as amount of mRNA in arbitrary units. Results from one representative out of three experiments are shown. (b) Cellular lysates from PT45-P1res and PT45-P1 cells were subjected to western blotting using an antibody for the detection of full-length L1CAM. PT45-P1res cells were either left untreated (w/o) or treated with 250 ng/mL IL1-RA for 24 hours. In parallel, PT45-P1 cells were either left untreated (w/o) or treated with 20 ng/mL IL1β for 24 hours. In all experiments, a HSP90 antibody was used as a control for equal protein load.
Cells were seeded into 6 well and 12 well plates, respectively, and transfected or treated as indicated. […] Protein concentrations were determined using the Dc Protein assay (BioRad). […]
2 μg of total RNA were reverse-transcribed into single-stranded cDNA, as described previously (Schafer et al., 1999). […] Data were collected during annealing steps and were further analysed by using the i-Cycler iQ Optical system software (BioRad). All samples were analysed in duplicates and data are expressed as amount of mRNA in arbitrary units.

Compound	L1-dependent regulation of transcription for cathepsin B and CRABPII [1]	ERK activation in treated cells (ERK phosphorylation)	release of L1-28 from the membrane into the supernatant (γ-secretase)	L1-32 in cell lysate (L1)	soluble L1 in the medium (L1)	L1CAM expression (L1CAM)
C[C@H](NC(=O)Cc1cc(F)cc(F)c1)C(=O)N[C@H](C(=O)OC(C)(C)C)c1ccccc1 [DAPT]	blocked	did not interfere with ERK activation	could not release this fragment into the supernatant	strong increase in the metalloprotease cleavage fragment L1-32	not increased by the treatment	–
IL1β: recombinant human Interleukin 1 beta from R&D Systems	–	–	–	–	–	enhanced L1CAM expression
